Source: ChEMBL document CHEMBL6092182, “Enhanced Plasma Stability and Potency of Aryl/Acyloxy Prodrugs of a BTN3A1 Ligand” (ACS Med Chem Lett, 2024)
pEC50: −log10 of the molar value.

Key:
[1] = Prodrug conversion in human plasma assessed as formation of mono-anion metabolite by measuring metabolite peak intensity at 100 uM incubated for 1 hr by LCMS analysis; assay type: ADME, cell-free
[2] = Prodrug conversion in human plasma assessed as formation of di-anion metabolite by measuring metabolite peak intensity at 100 uM incubated for 1 hr by LCMS analysis; assay type: ADME, cell-free; set-up: unit not given here
[3] = Prodrug conversion in human plasma assessed as formation of Ac-monoanion metabolite by measuring metabolite peak intensity at 100 uM incubated for 1 hr by LCMS analysis; assay type: ADME, cell-free
[4] = Stability in mouse plasma assessed as compound remaining measured after 2 hrs by MS analysis; assay type: ADME, cell-free
[5] = Stimulation of IL-2-treated human Vgamma9Vdelta2 T cell proliferation incubated for 72 hrs followed by compound washout measured after 11 days by flow cytometry; assay type: functional, cell-based
[6] = Stability in human plasma assessed as compound remaining at 100 uM measured after 2 hrs by MS analysis; assay type: ADME, cell-free; conditions: for Stability: 2 h, 100 µM
[7] = Stability in human plasma assessed as half life at 100 uM by LCMS analysis; assay type: ADME, cell-free
[8] = Prodrug conversion in human K562 cells assessed as formation of Ac-monoanion metabolite by measuring metabolite peak intensity at 100 uM incubated for 1 hr by LCMS analysis; assay type: functional
[9] = Prodrug conversion in human K562 cells assessed as formation of di-anion metabolite by measuring metabolite peak intensity at 100 uM incubated for 1 hr by LCMS analysis; assay type: functional
[10] = Prodrug conversion in human K562 cells assessed as formation of mono-anion metabolite by measuring metabolite peak intensity at 100 uM incubated for 1 hr by LCMS analysis; assay type: functional
[11] = Stimulation of IL-2-treated human Vgamma9Vdelta2 T cell proliferation assessed as IFN-gamma release pretreated human […] cells with compound for 1 hr followed by compound washout and addition of washed K562 cells to medium containing Vgamma9Vdelta2 T cells measured after 20 hrs by ELISA; assay type: functional, cell-based
[12] = Stability in rat plasma assessed as compound remaining measured after 2 hrs by MS analysis; assay type: ADME, cell-free
[13] = Stability in mouse plasma assessed as half life measured after 2 hrs by MS analysis; assay type: ADME, cell-free

| Compound | Activity [1] | Activity [2] | Activity [3] | Stability [4] | pEC50 [5] | Stability [6] [%] | t1/2 [7] [min] | Activity [8] | Activity [9] | Activity [10] | pEC50 [11] | Stability [12] [%] | t1/2 [13] [min] | remaining at 2 h, 100 µM ([6]; read-out: Stability) [%] |
| --- | --- | --- | --- | --- | --- | --- | --- | --- | --- | --- | --- | --- | --- | --- |
| CC(=O)OC/C(C)=C/CCP(=O)(OCOC(=O)c1ccccc1)Oc1ccc(C(C)C)cc1 (stereo unspecified) | 300 | 0 | 12000 | Stable | 9.57 | 34 | 66 | 180 | 870 | 8800 | 8.59 |  |  |  |
| COc1ccc(C(=O)OCOP(=O)(CC/C=C(\C)COC(C)=O)Oc2ccc(C(C)C)cc2)cc1 (stereo unspecified) | 830 | 0 | 3500 | Stable | 9.08 | 62 | 180 | 18 | 360 | 3900 | 8.39 |  |  |  |
| CC(=O)OC/C(C)=C/CCP(=O)(OCOC(=O)CC1CCOCC1)Oc1ccc(C(C)C)cc1 (stereo unspecified) | 3000 | 0 | 6100 | Stable | 9.36 | 28 | 42 | 49 | 1000 | 6300 | 8.46 |  |  |  |
| CC(=O)OC/C(C)=C/CCP(=O)(OCOC(=O)CC1CCOCC1)Oc1cccc2ccccc12 (stereo unspecified) | 2800 | 0 | 2900 | Stable | 9.18 | 7 | 15 | 4 | 880 | 3000 | 8.27 |  |  |  |
| C/C(=C\CCP(=O)(OCOC(=O)CC1CCOCC1)Oc1ccc(C(C)C)cc1)CO (stereo unspecified) | 16000 | 0 |  | Stable | 9.28 | 0 |  |  | 640 | 6600 | 8.66 |  |  |  |
| C/C(=C\CCP(=O)(OCOC(=O)CC1CCCCC1)Oc1ccc(C(C)C)cc1)CO (stereo unspecified) | 4500 | 0 |  | Stable | 8.96 | 80 | 94 |  | 500 | 4800 | 8.55 |  |  |  |
| C/C(=C\CCP(=O)(OCOC(=O)CC1CCOCC1)Oc1cccc2ccccc12)CO (stereo unspecified) | 11000 | 0 |  | Stable | 9.43 | 0 | 5.9 |  | 690 | 3200 | 8.32 | 65 | 5.6 |  |
| C/C(=C\CCP(=O)(OCOC(=O)C1CCCCC1)Oc1ccccc1)CO (stereo unspecified) |  |  |  |  |  |  |  |  |  |  |  |  |  | 0 |
| COc1ccc(C(=O)OCOP(=O)(CC/C=C(\C)CO)Oc2ccc(C(C)C)cc2)cc1 (stereo unspecified) | 5900 | 0 |  | Stable | 8.82 | 71 | 500 |  | 590 | 6000 | 8.19 |  |  |  |
| CC(=O)OC/C(C)=C/CCP(=O)(OCOC(=O)CC1CCCCC1)Oc1ccc(C(C)C)cc1 (stereo unspecified) | 330 | 0 | 2400 | Stable | 9.27 | 90 | 750 | 54 | 410 | 3900 | 8.52 |  |  |  |
| C/C(=C\CCP(=O)(OCOC(=O)c1ccccc1)Oc1ccc(C(C)C)cc1)CO (stereo unspecified) | 7900 | 0 |  | Stable | 9.37 | 13 |  |  | 830 | 10000 | 8.15 |  |  |  |
| CC(=O)OC/C(C)=C/CCP(=O)(OCOC(=O)C1CCOCC1)Oc1ccc(C(C)C)cc1 (stereo unspecified) | 3200 | 0 | 9900 | Stable | 8.92 | 0 | 16 | 67 | 1700 | 8200 | 8.66 |  |  |  |
| C/C(=C\CCP(=O)(OCOC(=O)C1CCOCC1)Oc1ccc(C(C)C)cc1)CO (stereo unspecified) | 13000 | 0 |  | Stable | 9.01 | 0 | 11 |  | 1500 | 18000 | 9.05 |  |  |  |
